Test systems include HCT-116; SK-OV-3; EKVX; ACHN; HL-60; HCC 2998; HT-29; SK-MEL-2; A549; SN12C; K562; UACC-62; MCF7; SF-295; SNB-75; HOP-62; OVCAR-8; SK-MEL-5; SF-539.
What all share (experiment): DTP human tumour cell line panel, 48 h

The results in this text go back to ChEMBL document CHEMBL1201862, “PubChem BioAssay data set” (2004).

SMILES strings stand for the structures.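 Briefly, cells in 96-well plates were exposed to five compound concentrations for 48 h, and endpoints were estimated by linear interpolation. Abbreviation: GI50, concentration required for 50% inhibition of growth.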 The source made the active and inactive calls. Cut-off read from the data, not from the text of the source: active = GI50 up to about 1.1 µM and inactive = higher. Some results are limits rather than exact numbers.

By GI50 is commonly meant the concentration at which growth is held to half of that of the control.

Consider `CC(C)CC(NC(=O)C(Cc1ccccc1)NC(=O)[C@H]1CC[C@H](NC(=O)C(Cc2ccc(OC(C)(C)C)cc2)NC(=O)OC(C)(C)C)C1)C(N)=O` (stereo not given in full), for which the GI50 in the assay with HCT-116 was 14.7 µM (inactive); in the assay with SK-OV-3 it was 44.7 µM (inactive); with EKVX, > 100 µM (inactive); in the assay with ACHN, 39.8 µM (inactive); in the assay on HL-60, 67 µM (inactive); in the assay with HCC 2998, 14.5 µM (inactive). Also, the GI50 in the assay with HT-29 was 18.9 µM (inactive); with SK-MEL-2 it was 20.2 µM (inactive); with A549, 50.9 µM (inactive); with SN12C, 17.7 µM (inactive); with K562, 17 µM (inactive); with UACC-62 it was 18.7 µM (inactive). The GI50 in the assay on MCF7 was 17.3 µM (inactive); in the assay on SF-295, 28.8 µM (inactive); in the assay on SNB-75, 27.8 µM (inactive); with HOP-62, 36.2 µM (inactive); in the assay on OVCAR-8, 18.4 µM (inactive); with SK-MEL-5, 1.07 µM (active). In addition, the GI50 with SF-539 was 14.4 µM (inactive).

Consider `COc1cc([C@@H]2c3cc(O)c(OC)cc3C=C(C(N)=O)[C@H]2C(N)=O)ccc1O`, for which the GI50 in the assay with HCT-116, with EKVX, in the assay with ACHN, in the assay with HL-60, in the assay with HCC 2998 and in the assay on HT-29 was > 100 µM (inactive) throughout. Further, the GI50 in the assay on A549, in the assay on SN12C, with K562, with MCF7, with SF-295 and in the assay on SNB-75 was > 100 µM (inactive) each time. For the same molecule, the GI50 in the assay on HOP-62, in the assay on OVCAR-8, in the assay on SK-MEL-5 and in the assay with SF-539 was > 100 µM (inactive) in each case.

In the case of `O=C(/C=C/c1cccs1)c1ccc(Cl)cc1`, the GI50 with HCT-116 is 41.5 µM (inactive); in the assay with SK-OV-3, > 100 µM (inactive); in the assay with EKVX it was > 100 µM (inactive); with ACHN, > 100 µM (inactive); in the assay with HL-60 it was 28.6 µM (inactive); with HCC 2998, > 100 µM (inactive). In addition, the GI50 is 39.7 µM (inactive) with HT-29; > 100 µM (inactive) in the assay on SK-MEL-2; > 100 µM (inactive) with A549; 51.5 µM (inactive) with SN12C; > 10 µM (inactive) in the assay on K562; > 100 µM (inactive) with UACC-62. Further, the GI50 in the assay with MCF7 was 21.9 µM (inactive); in the assay on SF-295 it was 99.3 µM (inactive); in the assay on SNB-75, > 100 µM (inactive); in the assay with HOP-62, > 100 µM (inactive); in the assay on OVCAR-8, 90.4 µM (inactive); in the assay on SK-MEL-5, 65.2 µM (inactive). Moreover, the GI50 in the assay with SF-539 was > 100 µM (inactive).

Consider `CC(=O)c1ccc(NCc2cc(O)ccc2O)cc1`, for which the GI50 with HCT-116 is 17.4 µM (inactive); in the assay on SK-OV-3, 23 µM (inactive); in the assay on EKVX, 30 µM (inactive); in the assay on ACHN it was 18.5 µM (inactive); in the assay on HL-60, 3.53 µM (inactive); with HT-29, 32.1 µM (inactive). For the same molecule, the GI50 was 20.4 µM (inactive) in the assay on SK-MEL-2; 25.5 µM (inactive) in the assay on SN12C; 32.2 µM (inactive) with K562; 15.3 µM (inactive) with UACC-62; 21.7 µM (inactive) in the assay with MCF7; 17.8 µM (inactive) in the assay with SF-295. Also, the GI50 is 13.7 µM (inactive) with SNB-75; 20.6 µM (inactive) with HOP-62; 23.8 µM (inactive) in the assay with OVCAR-8; 18.3 µM (inactive) in the assay with SK-MEL-5; 14.5 µM (inactive) with SF-539.

Take `COC(=O)CC1(O)C(=O)OCc2c1cc1n(c2=O)Cc2c-1nc1ccccc1c2OC` (stereo not given): the GI50 with HCT-116 was 0.388 µM (active); in the assay with SK-OV-3, 0.266 µM (active); with EKVX, 11.1 µM (inactive); with ACHN, 0.0689 µM (active); in the assay on HL-60, 0.0959 µM (active); in the assay on HCC 2998 it was 3.71 µM (inactive). In addition, the GI50 in the assay with HT-29 is 2.17 µM (inactive); in the assay with SK-MEL-2 it was 16.1 µM (inactive); in the assay with A549, 0.238 µM (active); with SN12C, 0.097 µM (active); with K562 it was 0.918 µM (active); with UACC-62 it was 0.0869 µM (active). The GI50 in the assay on SF-295 is 0.151 µM (active); with SNB-75, 0.232 µM (active); in the assay on HOP-62, 0.0461 µM (active); in the assay with OVCAR-8, 0.726 µM (active); with SK-MEL-5 it was 0.358 µM (active); in the assay with SF-539, 0.111 µM (active).

Consider `c1ccc2c(c1)nnn1c3cnccc3nc21`, for which the GI50 is 27.6 µM (inactive) with HCT-116; 42.2 µM (inactive) in the assay on SK-OV-3; 51.6 µM (inactive) in the assay on EKVX; 30.2 µM (inactive) in the assay on ACHN; 8.87 µM (inactive) in the assay with HL-60; 46.5 µM (inactive) in the assay on HCC 2998. The GI50 is 28.2 µM (inactive) with HT-29; 53.2 µM (inactive) in the assay with SK-MEL-2; 30.9 µM (inactive) in the assay with A549; 32.4 µM (inactive) in the assay on SN12C; 21.6 µM (inactive) in the assay with K562; 47 µM (inactive) with UACC-62. Besides, the GI50 with SF-295 was 77.1 µM (inactive); in the assay on SNB-75 it was 25.4 µM (inactive); in the assay on HOP-62, 40.2 µM (inactive); with OVCAR-8, 30 µM (inactive); in the assay with SK-MEL-5 it was 52.6 µM (inactive); in the assay with SF-539 it was 35.4 µM (inactive).

Turning to `C/C(=C\CNc1ncnc2c1ncn2CCC(=O)OC(C)(C)C)CO`, the GI50 with HCT-116, with SK-OV-3, in the assay with EKVX, with ACHN, with HL-60 and with HCC 2998 was > 100 µM (inactive) throughout. For the same molecule, the GI50 with HT-29, in the assay on A549, with SN12C, in the assay on K562, with UACC-62 and in the assay on MCF7 was > 100 µM (inactive) each time. Besides, the GI50 with SF-295, with SNB-75, in the assay with HOP-62, in the assay with OVCAR-8, in the assay with SK-MEL-5 and with SF-539 was > 100 µM (inactive) throughout.

For `CC(=O)O/C=C\OC1CCCC1`, the GI50 with SK-OV-3, with EKVX, in the assay on ACHN, in the assay on HL-60, with HCC 2998 and in the assay with HT-29 was > 100 µM (inactive) in each case. In addition, the GI50 in the assay with SK-MEL-2, in the assay with A549, in the assay on K562, in the assay with UACC-62, in the assay with MCF7 and in the assay on SF-295 was > 100 µM (inactive) throughout. In addition, the GI50 with SNB-75 was 55 µM (inactive); with HOP-62, > 100 µM (inactive); in the assay on OVCAR-8, > 100 µM (inactive); with SK-MEL-5 it was > 100 µM (inactive); in the assay on SF-539, > 100 µM (inactive).

For the molecule `CO/N=C(/C(=O)OC)c1ccccc1COc1cccc(C(F)(F)F)c1`, the GI50 in the assay on HCT-116 is 10.8 µM (inactive); in the assay with SK-OV-3 it was 38.9 µM (inactive); with EKVX it was 7.62 µM (inactive); in the assay on ACHN it was 33.3 µM (inactive); in the assay on HL-60, 9.68 µM (inactive); with HT-29, 46.9 µM (inactive). Moreover, the GI50 in the assay on SK-MEL-2 was 36.1 µM (inactive); in the assay with A549, 38.1 µM (inactive); with SN12C, 43.9 µM (inactive); with K562, 18.5 µM (inactive); in the assay on UACC-62 it was 18.2 µM (inactive); in the assay with MCF7, 25.3 µM (inactive). The GI50 was 7.23 µM (inactive) with SF-295; 31.7 µM (inactive) in the assay on SNB-75; 21.2 µM (inactive) with HOP-62; 4.79 µM (inactive) in the assay with SK-MEL-5; 54.1 µM (inactive) in the assay on SF-539.

As for `Cc1cc(N(CCC#N)CCC#N)ccc1/C=C1N=C(/C=C\c2ccccc2)OC\1=O`, the GI50 in the assay with HCT-116, in the assay with SK-OV-3, in the assay with EKVX, with ACHN, in the assay on HL-60 and in the assay with HCC 2998 was > 100 µM (inactive) throughout. For the same molecule, the GI50 in the assay with HT-29, in the assay with SK-MEL-2, in the assay with A549, in the assay on SN12C, in the assay with K562 and in the assay with UACC-62 was > 100 µM (inactive) in each case. In addition, the GI50 in the assay with SF-295, in the assay with SNB-75, in the assay with HOP-62, with OVCAR-8, in the assay on SK-MEL-5 and with SF-539 was > 100 µM (inactive) each time.

Regarding `CCc1cccc(C(C)C)c1N1C(=O)C(=O)C(c2nc3ccccc3s2)C(=O)C1=O`, the GI50 with HCT-116 was 20 µM (inactive); in the assay with SK-OV-3, > 50 µM (inactive); in the assay with EKVX it was > 50 µM (inactive); in the assay with ACHN, > 50 µM (inactive); in the assay on HL-60, 12.3 µM (inactive); with HCC 2998, > 50 µM (inactive). The GI50 in the assay with HT-29 is > 30.6 µM (inactive); in the assay on SK-MEL-2, > 50 µM (inactive); in the assay with A549, > 50 µM (inactive); in the assay on SN12C it was > 50 µM (inactive); in the assay on K562, 16.3 µM (inactive); in the assay on UACC-62, > 50 µM (inactive). The GI50 was > 39.4 µM (inactive) in the assay with SF-295; > 50 µM (inactive) in the assay on SNB-75; > 50 µM (inactive) in the assay with HOP-62; > 35.2 µM (inactive) with OVCAR-8; 21.8 µM (inactive) in the assay with SK-MEL-5; > 50 µM (inactive) in the assay on SF-539.
